# How the values were obtained:
# Format in all cases: cell-based
# hGPR17L-R301H = biological target: T1, hGPR17L-R301H (Homo sapiens, UniProt Q13304, R301H); assay: GloSensor cAMP assay, inhibition of forskolin-stimulated cAMP
# T1 construct: expressed in transfected cells; host or cells: HEK293 (ATCC CRL-1573)
# Method: (§1) HEK293 cells were seeded at 20,000 cells/well into white, opaque 96-well plates. The next day, cells were transiently cotransfected with pGloSensor-cAMP-22F and pcDNA3-HA-hGPR17L or pcDNA3-HA-hGPR17L-variants using lipofectamine 3000. Twenty-four hours posttransfection, growth medium and transfection mix were aspirated and replaced with 100 μl/well equilibration medium (2% Promega GloSensor cAMP reagent [E1291; Promega Corporation] in CO2-independent medium) and incubated at room temperature for 2 h. Baseline luminescence was read on a Molecular Devices SpectraMax iD5 plate reader (Molecular Devices) at ambient room temperature for 8 min. Subsequently, 10 μl/well MDL29,951 diluted in assay buffer (HBSS, 20 mM HEPES, pH 7.2) was added and luminescence was read for 10 min. Finally, 10 μl/well forskolin (1099; Tocris Bioscience) diluted in assay buffer was added and luminescence was measured for 20–30 min. The average luminescence value for the 14–20 min time points for each well was normalized to their average baseline luminescence value and expressed as a percentage of the forskolin-stimulated response within each transfection condition.
# hGPR17L-V103M = biological target: T2, hGPR17L-V103M (Homo sapiens, UniProt Q13304, V103M); assay: as above
# T2 construct: expressed in transfected cells; host or cells: HEK293 (ATCC CRL-1573), transient transfection
# Method: as §1
# hGPR17L-V96M = biological target: T3, hGPR17L-V96M (Homo sapiens, UniProt Q13304, V96M); assay: as above
# T3 construct: expressed in transfected cells; host or cells: HEK293 (ATCC CRL-1573), transient transfection
# Method: as §1
# hGPR17L-WT = biological target: T4, hGPR17L-WT (Homo sapiens, UniProt Q13304); assay: as above
# T4 construct: expressed in transfected cells; host or cells: HEK293 (ATCC CRL-1573), transient transfection of pcDNA3-HA-hGPR17L
# Method: as §1
# hGPR17L-D105N-Tango = biological target: T5, hGPR17L-D105N-Tango (Homo sapiens, UniProt Q13304, D105N); assay: Tango β-arrestin recruitment assay
# T5 construct: Tango fusion module; host or cells: HTLA (HEK293T-derived)
# Method: (§2) HTLA cells were seeded at 10,000 cells/well into white, opaque, poly-D-lysine-coated 96-well plates and transfected with hGPR17L-WT-Tango or hGPR17L-variant-Tango plasmids the following day using lipofectamine 3000 according to the manufacturer's protocol. The next day, cells were incubated at 37 °C and 5% CO2 in serum-free growth media for a 4 h serum starvation. MDL29,951 was then diluted in assay buffer (HBSS, 20 mM HEPES, pH 7.2), added to the cells, and incubated for 16 h at 37 °C and 5% CO2. Drug treatment was decanted and 80 μl/well of Promega Bright-Glo reagent (diluted 20× in assay buffer) (E2610; Promega Corporation) was added and incubated at room temperature for 15 min. Luminescence (1 s per well integration time) was read on a Molecular Devices SpectraMax iD5 plate reader.
# hGPR17L-G354V-Tango = biological target: T6, hGPR17L-G354V-Tango (Homo sapiens, UniProt Q13304, G354V); assay: Tango β-arrestin recruitment assay
# T6 construct: Tango fusion module; host or cells: HTLA (HEK293T-derived)
# Method: as §2
# hGPR17L-R301H-Tango = biological target: T7, hGPR17L-R301H-Tango (Homo sapiens, UniProt Q13304, R301H); assay: Tango β-arrestin recruitment assay
# T7 construct: Tango fusion module; host or cells: HTLA (HEK293T-derived)
# Method: as §2
# hGPR17L-V96M-Tango = biological target: T8, hGPR17L-V96M-Tango (Homo sapiens, UniProt Q13304, V96M); assay: Tango β-arrestin recruitment assay; settings: HTLA cells, MDL29,951 0.5 nM to 30 μM
# T8 construct: Tango fusion module; host or cells: HTLA (HEK293T-derived)
# Method: as §2
# hGPR17L-WT-Tango = biological target: T9, hGPR17L-WT-Tango (Homo sapiens, UniProt Q13304); assay: Tango β-arrestin recruitment assay
# T9 construct: Tango fusion module; host or cells: HTLA (HEK293T-derived)
# Method: as §2
# [1] = HEK293, inhibition of 3 μM forskolin-stimulated cAMP
# [2] = read-out: cAMP IC50, HEK293, inhibition of 3 μM forskolin-stimulated cAMP
# [3] = read-out: β-arrestin recruitment EC50, HTLA cells
# T3 sequence (Q13304 whole entry V96M): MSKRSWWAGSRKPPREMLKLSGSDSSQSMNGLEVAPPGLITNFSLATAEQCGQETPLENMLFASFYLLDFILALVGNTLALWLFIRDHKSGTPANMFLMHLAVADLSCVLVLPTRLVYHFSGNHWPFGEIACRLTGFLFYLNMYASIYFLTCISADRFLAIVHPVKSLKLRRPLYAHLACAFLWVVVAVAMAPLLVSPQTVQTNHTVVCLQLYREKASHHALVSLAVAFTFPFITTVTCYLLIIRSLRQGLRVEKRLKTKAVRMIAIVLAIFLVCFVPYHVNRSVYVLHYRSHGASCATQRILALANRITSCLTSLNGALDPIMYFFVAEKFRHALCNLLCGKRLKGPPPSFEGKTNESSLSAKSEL
# T2 sequence (Q13304 whole entry V103M): as the sequence (Q13304 whole entry V96M) above, with M96V, V103M counted along it
# T5 sequence (Q13304 whole entry D105N, the tested form may be a part): as the sequence (Q13304 whole entry V96M) above, with M96V, D105N counted along it
# T4 sequence (Q13304 whole entry): as the sequence (Q13304 whole entry V96M) above, with M96V counted along it
# T9 sequence (Q13304 whole entry, the tested form may be a part): as the sequence (Q13304 whole entry V96M) above, with M96V counted along it
# T7 sequence (Q13304 whole entry R301H, the tested form may be a part): as the sequence (Q13304 whole entry V96M) above, with M96V, R301H counted along it
# T1 sequence (Q13304 whole entry R301H): as the sequence (Q13304 whole entry V96M) above, with M96V, R301H counted along it
# T6 sequence (Q13304 whole entry G354V, the tested form may be a part): as the sequence (Q13304 whole entry V96M) above, with M96V, G354V counted along it
# T8 sequence (Q13304 whole entry V96M, the tested form may be a part): as the sequence (Q13304 whole entry V96M) above
smiles,measurement,setting,value
"O=C(O)CCc1c(C(=O)O)[nH]c2cc(Cl)cc(Cl)c12 [MDL29,951]",cAMP Efficacy (% inhibition),"hGPR17L-R301H; HEK293, 3 μM forskolin",52 ± 5.2 % inhibition
same,cAMP 10 μM MDL +3 μM FSK (% of FSK),"hGPR17L-R301H; HEK293, 10 μM MDL29,951",72 ± 2.5 % of FSK
same,cAMP 100 μM MDL +3 μM FSK (% of FSK),"hGPR17L-R301H; HEK293, 100 μM MDL29,951",101 ± 2.9 % of FSK
same,cAMP pIC50 ± SEM,hGPR17L-R301H; [1],8.00 ± 0.46
same,IC50,hGPR17L-R301H; [2],10 nM
same,cAMP Efficacy (% inhibition),"hGPR17L-V103M; HEK293, 3 μM forskolin",40 ± 1.3 % inhibition
same,cAMP 10 μM MDL +3 μM FSK (% of FSK),"hGPR17L-V103M; HEK293, 10 μM MDL29,951",81 ± 4.0 % of FSK
same,cAMP 100 μM MDL +3 μM FSK (% of FSK),"hGPR17L-V103M; HEK293, 100 μM MDL29,951",101 ± 4.0 % of FSK
same,cAMP pIC50 ± SEM,hGPR17L-V103M; [1],9.24 ± 0.41
same,IC50,hGPR17L-V103M; [2],0.57 nM
same,cAMP Efficacy (% inhibition),"hGPR17L-V96M; HEK293, 3 μM forskolin",36 ± 4.2 % inhibition
same,cAMP 10 μM MDL +3 μM FSK (% of FSK),"hGPR17L-V96M; HEK293, 10 μM MDL29,951",60 ± 5.6 % of FSK
same,cAMP 100 μM MDL +3 μM FSK (% of FSK),"hGPR17L-V96M; HEK293, 100 μM MDL29,951",65 ± 4.6 % of FSK
same,cAMP pIC50 ± SEM,hGPR17L-V96M; [1],8.77 ± 0.36
same,IC50,hGPR17L-V96M; [2],1.7 nM
same,cAMP Efficacy (% inhibition),"hGPR17L-WT; HEK293, 3 μM forskolin",47 ± 2.5 % inhibition
same,cAMP 10 μM MDL +3 μM FSK (% of FSK),"hGPR17L-WT; HEK293, 10 μM MDL29,951",92 ± 4.4 % of FSK
same,cAMP 100 μM MDL +3 μM FSK (% of FSK),"hGPR17L-WT; HEK293, 100 μM MDL29,951",115 ± 6.1 % of FSK
same,cAMP pIC50 ± SEM,hGPR17L-WT; [1],8.52 ± 0.13
same,IC50,hGPR17L-WT; [2],3 nM
same,β-arrestin recruitment Efficacy (% of WT span),hGPR17L-D105N-Tango; HTLA cells,100 ± 5.0 % of WT span
same,β-arrestin recruitment pEC50 ± SEM,hGPR17L-D105N-Tango; HTLA cells,6.53 ± 0.03
same,EC50,hGPR17L-D105N-Tango; [3],290 nM
same,β-arrestin recruitment pEC50 ± SEM,hGPR17L-G354V-Tango; HTLA cells,6.96 ± 0.04
same,EC50,hGPR17L-G354V-Tango; [3],110 nM
same,β-arrestin recruitment Efficacy (% of WT span),hGPR17L-R301H-Tango; HTLA cells,69 ± 9.0 % of WT span
same,β-arrestin recruitment pEC50 ± SEM,hGPR17L-R301H-Tango; HTLA cells,6.55 ± 0.04
same,EC50,hGPR17L-R301H-Tango; [3],280 nM
same,agonist-stimulated β-arrestin recruitment,hGPR17L-V96M-Tango,no apparent agonist-stimulated β-arrestin recruitment
same,maximum β-arrestin recruitment response,hGPR17L-WT-Tango; HTLA cells,1.78 ± 0.09 fold over baseline
same,β-arrestin recruitment Efficacy (% of WT span),hGPR17L-WT-Tango; HTLA cells,100 % of WT span
same,β-arrestin recruitment pEC50 ± SEM,hGPR17L-WT-Tango; HTLA cells,7.02 ± 0.02
same,EC50,hGPR17L-WT-Tango; [3],96 nM
